Reference: patent US8507506B2, “Theophylline derivative inhibits osteoporosis” (Kaohsiung Medical University, priority 2011, dated 2013)

Experiments:
[1] = test system: IL-10 secretion by RAW264.7 cells; test: ELISA, amount of IL-10; format: cell-based; settings: RAW264.7, ELISA, increasing dose, FIG. 7(B)
Procedure: Under RANKL stimulation, mononuclear RAW264.7 cells can secrete pro-inflammatory cytokines such as TNF-α, IL-1, IL-6, etc. ELISA is used to measure that KMUP-1 influences RANKL to induce the secretion of pro-inflammatory cytokines. […] 10^5 cells were plated per well in 24-well plates. […] After 24 hours reaction, the reaction fluid was centrifuged (13,000 rpm, 4° C., 20 minutes), and then the supernatant was tasted by ELISA kit (R&D system and eBioscience™) to detect the amount of TNF-α, IL-1β, IL-6, and IL-10. The experimental process is followed with the instructions of the kit.

[2] = test system: MMP-2 protein in RAW264.7 cells; test: Western blot, amount of MMP-2 protein induced by RANKL; format: cell-based; settings: RANKL 24 hours, FIG. 18
Procedure: KMUP-1 influences there major up-stream signal transduction pathways which are related to RANK/RANKL. Western blot is used to estimate the amount of matrix metalloproteinase (MMP)-2 and MMP-9 which are related to the dissolution of osteoclast-like cells, and the enzyme activity of MMP-2 and MMP-9 are estimated via Gelatin Zymography. […] The proteins were collected by scraping and were centrifuged (13,000 rpm, 4° C., 30 minutes). The supernatant was stored in an eppendorf in −80° C. • c) Concentrations of the proteins were examined by Bio-Red DC Protein Assay. After knowing the concentrations, the proteins were diluted to specific concentrations by adding ddH2O. One forth volume of the diluted proteins of sample buffer was added into the diluted proteins and was put in boiled water for 5 min and then was chilled on ice for 5 minutes. After short time centrifugation, the diluted proteins could be injected into wells of a gel. The gel was run at 100 V for 10 minutes until the proteins were driven to the intersection between a loading gel and a running gel. Then, the voltage was swopped to 200 V for 40 minutes. • d) A PVDF membrane was immersed in Methanol for 2 minutes. After two washes in ddH2O, the membrane was immersed in transfer buffer for 15 minutes. A SDS-PAGE was put on the membrane, and wet paper was flanked them. […]

Cn1c(=O)c2c(ncn2CCN2CCN(c3ccccc3Cl)CC2)n(C)c1=O [KMUP-1, 7-[2-[4-(2-Chlorophenyl)piperazin-1-yl]ethyl] theophylline]
amount of anti-inflammatory cytokine IL-10 [1]: can raise the amount of anti-inflammatory cytokines, IL-10 | amount of MMP-2 protein induced by RANKL [2]: can efficiently inhibit the amount of MMP-2 and MMP-9 proteins
